Experiments:
[1] = test system: wheat; test: Test B pre/postemergence wheat; assay type: in vivo, Triticum aestivum
In short: (§1)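 Herbicidal effect was estimated by eye on a ten-point control scale after plants spent twelve to sixteen days in a greenhouse following soil or foliar treatment. Foliar sprays targeted plants at one to four leaves; all doses were formulated in a non-phytotoxic solvent with surfactant.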

[2] = test system: surinam grass; test: Test B pre/postemergence surinam grass; assay type: in vivo, Brachiaria decumbens
In short: as §1

[3] = test system: cocklebur; test: Test B pre/postemergence cocklebur; assay type: in vivo, Xanthium strumarium
In short: as §1

[4] = test system: soybean; test: Test B pre/postemergence soybean; assay type: in vivo, Glycine max
In short: as §1

[5] = test system: pigweed; test: Test B pre/postemergence pigweed; assay type: in vivo, Amaranthus retroflexus
In short: as §1

[6] = test system: velvetleaf; test: Test B pre/postemergence velvetleaf; assay type: in vivo, Abutilon theophrasti
In short: as §1

[7] = test system: morningglory; test: Test B pre/postemergence morningglory; assay type: in vivo, Ipomoea hederacea
In short: as §1

[8] = test system: bedstraw; test: Test B pre/postemergence bedstraw; assay type: in vivo, Galium aparine; settings: Postemergence, Rate 125 g/ha; scale of 0 to 10 where 0 is no effect and 10 is complete control
In short: as §1

[9] = test system: duck salad; test: Test B flood test duck salad; assay type: in vivo, Heteranthera limosa
In short: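 Plants were grown to the 2-leaf stage before treatment with test chemical, then held in a greenhouse for twelve to sixteen days. Injury was visually rated against untreated controls on a 0–10 scale, where 0 is no effect and 10 is complete control.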

[10] = test system: rape; test: Test B pre/postemergence rape; assay type: in vivo, Brassica napus
In short: as §1

[11] = test system: corn; test: Test B pre/postemergence corn; assay type: in vivo, Zea mays
In short: as §1

[12] = test system: purple nutsedge; test: Test B pre/postemergence purple nutsedge; assay type: in vivo, Cyperus rotundus
In short: as §1

[13] = test system: sugar beet; test: Test B pre/postemergence sugar beet; assay type: in vivo, Beta vulgaris
In short: as §1

[14] = test system: giant foxtail; test: Test B pre/postemergence giant foxtail; assay type: in vivo, Setaria faberii
In short: as §1

[15] = test system: crabgrass; test: Test B pre/postemergence crabgrass; assay type: in vivo, Digitaria sanguinalis
In short: as §1

[16] = Postemergence, Rate 62 g/ha, scale 0 to 10, 0 is no effect, 10 is complete control
[17] = Postemergence, Rate 125 g/ha, scale of 0 to 10 where 0 is no effect and 10 is complete control
[18] = Preemergence, Rate 62 g/ha, scale of 0 to 10 where 0 is no effect and 10 is complete control
[19] = Preemergence, Rate 125 g/ha, scale of 0 to 10 where 0 is no effect and 10 is complete control
[20] = Preemergence, Rate 250 g/ha, scale 0 to 10 (0 no effect, 10 complete control)
[21] = Preemergence, Rate 500 g/ha, scale of 0 to 10 where 0 is no effect and 10 is complete control
[22] = Rate 500 g/ha, Postemergence, scale 0 to 10, 0 is no effect, 10 is complete control
[23] = Postemergence, Rate 250 g/ha, scale of 0 to 10, 0 is no effect, 10 is complete control

Structure (SMILES): CC[C@H](C)n1c(=O)on(C(=O)N(c2ccc(F)cc2F)C(C)C)c1=O [Compound 666]
- Plant response rating, Wheat [1, 16]: 0
- Wheat plant response rating [1, 17]: 0
- Wheat plant response rating [1, 18]: 0
- Wheat plant response rating [1, 19]: 3
- Plant response rating, Wheat [1, 20]: 4
- Plant response rating, Wheat [1, 21]: 7
- Wheat plant response rating [1, 22]: 3
- Plant response rating, B. signalgrass [2, 16]: 0
- Plant response rating, B. signalgrass [2, 17]: 4
- B. signalgrass plant response rating [2, 23]: 5
- B. signalgrass plant response rating [2, 18]: 2
- B. signalgrass plant response rating [2, 19]: 3
- Plant response rating, B. signalgrass [2, 20]: 7
- Plant response rating, B. signalgrass [2, 21]: 8
- B. signalgrass plant response rating [2, 22]: 7
- Plant response rating, Cocklebur [3, 16]: 0
- Cocklebur plant response rating [3, 17]: 1
- Cocklebur plant response rating [3, 23]: 4
- Cocklebur plant response rating [3, 18]: 0
- Cocklebur plant response rating [3, 19]: 0
- Plant response rating, Cocklebur [3, 20]: 0
- Plant response rating, Cocklebur [3, 21]: 0
- Cocklebur plant response rating [3, 22]: 7
- Plant response rating, Soybean [4, 16]: 4
- Soybean plant response rating [4, 17]: 4
- Soybean plant response rating [4, 18]: 0
- Soybean plant response rating [4, 19]: 0
- Plant response rating, Soybean [4, 20]: 3
- Plant response rating, Soybean [4, 21]: 4
- Plant response rating, Redroot pigweed [5, 16]: 0
- Redroot pigweed plant response rating [5, 17]: 1
- Redroot pigweed plant response rating [5, 18]: 8
- Redroot pigweed plant response rating [5, 19]: 10
- Plant response rating, Redroot pigweed [5, 20]: 10
- Plant response rating, Redroot pigweed [5, 21]: 10
- Redroot pigweed plant response rating [5, 22]: 6
- Plant response rating, Velvetleaf [6, 16]: 0
- Velvetleaf plant response rating [6, 17]: 2
- Velvetleaf plant response rating [6, 18]: 5
- Velvetleaf plant response rating [6, 19]: 6
- Plant response rating, Velvetleaf [6, 20]: 7
- Plant response rating, Velvetleaf [6, 21]: 8
- Velvetleaf plant response rating [6, 22]: 6
- Plant response rating, Morningglory [7, 16]: 0
- Morningglory plant response rating [7, 17]: 1
- Morningglory plant response rating [7, 23]: 7
- Morningglory plant response rating [7, 18]: 0
- Morningglory plant response rating [7, 19]: 0
- Plant response rating, Morningglory [7, 20]: 0
- Plant response rating, Morningglory [7, 21]: 3
- Morningglory plant response rating [7, 22]: 7
- Bedstraw plant response rating [8]: 0
- Plant response rating, Ducksalad (0 to 10 scale, 0 is no effect, 10 is complete control) ([9]; Rate 62 g/ha, flood test species, Pre-emergence, visual evaluation after twelve to sixteen days): 0
- Ducksalad plant response rating (0 to 10 scale, 0 is no effect, 10 is complete control) ([9]; Rate 125 g/ha, under heading Pre-emergence, flood test species, visual evaluation after twelve to sixteen days): 0
- Ducksalad plant response rating ([9]; Rate 250 g/ha, Pre-emergence (flood test species), scale 0 to 10, 0 is no effect, 10 is complete control): 0
- Ducksalad plant response rating ([9]; Rate 500 g/ha, Pre-emergence section of Table B, 0 to 10 scale (0 no effect, 10 complete control)): 0
- Plant response rating, Rape [10, 16]: 0
- Rape plant response rating [10, 17]: 0
- Rape plant response rating [10, 18]: 0
- Rape plant response rating [10, 19]: 8
- Plant response rating, Rape [10, 20]: 10
- Plant response rating, Rape [10, 21]: 10
- Rape plant response rating [10, 22]: 4
- Plant response rating, Corn [11, 16]: 0
- Corn plant response rating [11, 17]: 0
- Corn plant response rating [11, 23]: 0
- Corn plant response rating [11, 18]: 0
- Corn plant response rating [11, 19]: 4
- Plant response rating, Corn [11, 20]: 8
- Plant response rating, Corn [11, 21]: 10
- Corn plant response rating [11, 22]: 0
- Plant response rating, Nutsedge [12, 16]: 0
- Nutsedge plant response rating [12, 17]: 0
- Nutsedge plant response rating [12, 18]: 0
- Plant response rating, Nutsedge [12, 20]: 0
- Nutsedge plant response rating [12, 22]: 0
- Plant response rating, Sugarbeets [13, 16]: 0
- Sugarbeets plant response rating [13, 17]: 0
- Sugarbeets plant response rating [13, 18]: 0
- Sugarbeets plant response rating [13, 19]: 4
- Plant response rating, Sugarbeets [13, 20]: 7
- Plant response rating, Sugarbeets [13, 21]: 8
- Sugarbeets plant response rating [13, 22]: 4
- Plant response rating, Giant foxtail [14, 16]: 2
- Giant foxtail plant response rating [14, 17]: 8
- Giant foxtail plant response rating [14, 23]: 8
- Giant foxtail plant response rating [14, 18]: 9
- Giant foxtail plant response rating [14, 19]: 10
- Plant response rating, Giant foxtail [14, 20]: 10
- Plant response rating, Giant foxtail [14, 21]: 10
- Giant foxtail plant response rating [14, 22]: 9
- Plant response rating, Crabgrass [15, 16]: 3
- Crabgrass plant response rating [15, 17]: 9
- Crabgrass plant response rating [15, 23]: 9
- Crabgrass plant response rating [15, 18]: 7
- Crabgrass plant response rating [15, 19]: 8
- Plant response rating, Crabgrass [15, 20]: 9
- Plant response rating, Crabgrass [15, 21]: 10
- Crabgrass plant response rating [15, 22]: 9
